“Also recorded” adds a separate entry of the source. Where two headings read alike, the source gives them in different places.
Columns and labels:
hCK2α [1] = target: T1, hCK2α (Homo sapiens, UniProt P68400); experiment: CK2 phosphorylation assay (P2B substrate, [γ-32P]ATP); format: biochemical; parameters: GST (N); made in house; host or cells: bacteria; settings: for IC50 / Ki: 20 µM ATP, P2B protein substrate; for IC50: 37 °C, 5 min, read-out: IC50 (µM) ± SD CK2; for Ki: read-out: Ki (µM) ± SD CK2; for inhibition of CK2 stronger than that of Rio1 (fold): CK2 versus Rio1
Experimental: Recombinant human protein kinase GST-CK2α was produced in bacteria and purified as described elsewhere.
The reaction buffer contained 20 µM [γ-^32P]ATP (specific radioactivity 300–1000 cpm/pmol), 15 mM Mg^2+, 20 mM Tris–HCl pH 7.5, and 6 mM 2-mercaptoethanol.
(§1) The phosphorylation was terminated by addition of SDS/PAGE sample buffer, and proteins were resolved by electrophoresis, followed by Coomassie Brilliant Blue staining. The gels were dried and ^32P-labelled bands of P2B and Rio1 were excised from the gel, and radioactivity was determined in a scintillation counter (MicroBeta, Perkin Elmer) by Cerenkov counting.
(§2) IC50, K i, K m, and V max values were calculated using GraphPad Prism (version 4.0) software.

human Rio1 [2] = target: T2, human Rio1 (Homo sapiens, UniProt Q9BRS2); experiment: Rio1 autophosphorylation assay ([γ-32P]ATP); format: biochemical; settings: 0.5 µM ATP; for IC50: 37 °C, 15 min, read-out: IC50 (µM) ± SD Rio1; for Ki: read-out: Ki (µM) ± SD Rio1
T2 construct: Human recombinant kinase Rio1 containing residues 134–494 was expressed and purified as previously reported; made in house
T2 sequence (Q9BRS2 134-494): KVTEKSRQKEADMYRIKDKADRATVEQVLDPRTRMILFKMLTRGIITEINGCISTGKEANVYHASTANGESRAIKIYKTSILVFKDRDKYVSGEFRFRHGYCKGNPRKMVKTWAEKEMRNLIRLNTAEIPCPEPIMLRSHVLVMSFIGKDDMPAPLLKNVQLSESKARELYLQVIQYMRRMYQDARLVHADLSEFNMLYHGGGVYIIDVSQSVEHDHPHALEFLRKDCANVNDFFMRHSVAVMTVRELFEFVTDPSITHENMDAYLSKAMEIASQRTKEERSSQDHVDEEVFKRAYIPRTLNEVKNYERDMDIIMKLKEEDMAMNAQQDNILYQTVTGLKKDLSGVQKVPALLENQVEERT
Experimental: Recombinant human protein kinase GST-CK2α was produced in bacteria and purified as described elsewhere. The plasmid carrying the gene encoding human protein kinase Rio1 (residues […]) was kindly gifted by Professor Nicole LaRonde—LeBlanc (University of Maryland, USA). Human recombinant kinase Rio1 containing residues 134–494 was expressed and purified as previously reported with a few modifications.
In order to determine the autophosphorylation of human Rio1, the enzyme was incubated at 37 °C for 15 min in 50 μl samples each containing 1 pmol of human recombinant Rio1 and an appropriate concentration of tested compound (0.01–50 µM). The reaction buffer contained 0.5 µM ATP, [γ-^32P]ATP (specific radioactivity 300–1000 cpm/pmol), 50 mM NaCl, 10 mM Mg^2+, 50 mM Tris–HCl pH 7.5, and 6 mM 2-mercaptoethanol.
as §1, §2

human Rio1 [3] = target: T2, human Rio1; experiment: Steady-state kinetics of Rio1 autophosphorylation (Km for ATP, Vmax) with TIBI; format: biochemical
Experimental: Additionally, the same protocol was followed with the addition of TIBI to the reaction mixture at a concentration of 0.01, 0.05, and 0.1 µM.
as §1, §2

hRio1 [4] = target: T3, hRio1 (Homo sapiens, UniProt Q9BRS2); experiment: Size-exclusion chromatography of Rio1 (oligomeric state); settings: 100 µM TIBI, 2 mg/ml hRio1
T3 construct: Human recombinant kinase Rio1 containing residues 134–494 was expressed and purified as previously reported; made in house
T3 sequence (Q9BRS2 134-494): T2 sequence (Q9BRS2 134-494)
Experimental: The glass column (200/10 mm) filled with the Sephadex G-200 medium (GE Healthcare) was equilibrated with a buffer containing 10 mM Tris, pH 7.5, 150 mM NaCl, and 6 mM β-mercaptoethanol. In order to calibrate the column, four proteins, namely β-amylase (200 kDa), alcohol dehydrogenase (150 kDa), bovine serum albumin (67 kDa), and ovalbumin (43 kDa), were separately loaded onto the column. 100-µl samples containing 2 mg/ml hRio1 diluted in the equilibration buffer in the presence or absence (control) of 100 µM TIBI were then loaded onto the column. The chromatography was performed at a flow rate 0.2 ml/min using the FPLC system AKTA Purifier 10 (GE Healthcare), and runs were monitored by OD280.

hCK2α [5] = target: T1, hCK2α; experiment: Thermofluor (thermal shift) assay, CK2α; format: binding; settings: 100 µM TIBI
Experimental: The procedure was performed according to the protocol described elsewhere with a few modifications. 10-µl reactions containing 50 mM NaCl, 10 mM Mg^2+, 50 mM Tris–HCl pH 7.5, 1 mg/ml hRio1 or hCK2α, and 100 µM TIBI or 5% DMSO (control) were incubated at 4 °C for 30 min. 10 µl of the SYPRO Orange dye was then added to the reactions. […] The changes in fluorescence intensity were measured as the temperature increased. Melting temperatures (T m) of hRio1 and CK2 in the presence and absence of TIBI were calculated using Bio-Rad software. The experiment was performed in duplicate.

[6] = tested on: promyelocytic leukemia cell line HL-60; parameters: method as in PMID 21229880; settings: cited from earlier work
human Rio1 [7] = target: T2, human Rio1; experiment: Rio1 autophosphorylation assay ([γ-32P]ATP); format: biochemical
hRio1 [8] = target: T3, hRio1; experiment: Thermofluor (thermal shift) assay, Rio1; format: binding; settings: 100 µM TIBI
Experimental: The procedure was performed according to the protocol described elsewhere with a few modifications. 10-µl reactions containing 50 mM NaCl, 10 mM Mg^2+, 50 mM Tris–HCl pH 7.5, 1 mg/ml hRio1 or hCK2α, and 100 µM TIBI or 5% DMSO (control) were incubated at 4 °C for 30 min. 10 µl of the SYPRO Orange dye was then added to the reactions. The samples were heated from 4 to 98 °C at a rate of 0.2° per second using a thermal cycler (CFX 1000, Bio-Rad). The changes in fluorescence intensity were measured as the temperature increased. Melting temperatures (T m) of hRio1 and CK2 in the presence and absence of TIBI were calculated using Bio-Rad software. The experiment was performed in duplicate.

human Rio1 [9] = target: T2, human Rio1; settings: cited from earlier work
hRio1 [10] = target: T3, hRio1; settings: cited from earlier work

T1 sequence (P68400 whole entry): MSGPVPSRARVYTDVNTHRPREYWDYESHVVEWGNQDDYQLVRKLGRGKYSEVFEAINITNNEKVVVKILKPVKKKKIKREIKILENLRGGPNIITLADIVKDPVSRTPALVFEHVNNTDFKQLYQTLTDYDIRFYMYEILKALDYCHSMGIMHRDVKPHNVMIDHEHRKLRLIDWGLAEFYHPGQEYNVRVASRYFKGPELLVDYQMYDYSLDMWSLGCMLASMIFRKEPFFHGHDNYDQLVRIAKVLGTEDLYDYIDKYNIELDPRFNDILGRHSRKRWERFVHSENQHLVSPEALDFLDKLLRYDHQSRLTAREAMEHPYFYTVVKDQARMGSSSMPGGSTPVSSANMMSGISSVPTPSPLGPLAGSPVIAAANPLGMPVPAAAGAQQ

SMILES | IC50 (hCK2α [1]) | Ki (hCK2α [1]) | IC50 (human Rio1 [2]) | Ki (human Rio1 [2]) | also measured
Brc1c(Br)c(Br)c2[nH]nnc2c1Br [TBB, 4,5,6,7-Tetrabromo-2-azabenzimidazole, reference compound] |  |  | 1.74 ± 0.05 µM | 0.983 ± 0.03 µM | 
Cn1c(SCC(=O)O)nc2c(Br)c(Br)c(Br)c(Br)c21 [TBTS, [(4,5,6,7-tetrabromo-N,N,1-trimethylbenzimidazole-2-yl)sulfanyl]acetic acid] | 0.6 ± 0.03 µM | 0.257 ± 0.009 µM |  | 0.39 ± 0.011 µM | 
Clc1c(Cl)c(Cl)c2[nH]cnc2c1Cl [TCI, 4,5,6,7-tetrachlorobenzimidazole] | 9.7 ± 0.3 µM | 4.15 ± 0.1 µM | 1.9 ± 0.07 µM | 1.07 ± 0.04 µM | 
CC(CC(=O)O)Cn1c(N(C)C)nc2c(Br)c(Br)c(Br)c(Br)c21 (stereo not shown) [TDBB, 3-methyl-4-[4,5,6,7-tetrabromo-2-(dimethylamino)benzimidazole-1-yl]butanoic acid] | 1.51 ± 0.04 µM | 0.647 ± 0.014 µM | 2.17 ± 0.06 µM | 1.23 ± 0.03 µM | 
NCCNc1nc2c(I)c(I)c(I)c(I)c2[nH]1 [TI-2Am, 4,5,6,7-tetraiodobenzimidazole-2-amine-ethylamine] | 0.05 ± 0.002 µM | 0.021 ± 0.001 µM | 0.23 ± 0.01 µM | 0.13 ± 0.005 µM | inhibition of CK2 stronger than that of Rio1 (fold) (hCK2α [1]): ca. sixfold stronger
CN(C)c1nc2c(I)c(I)c(I)c(I)c2n1C [TIdiMe, 2-dimethylamino-1-metyl-4,5,6,7-tetraiodobenzimidazole] | 0.2 ± 0.006 µM | 0.085 ± 0.003 µM | 0.24 ± 0.008 µM | 0.135 ± 0.005 µM | 
N#Cc1cn([C@@H]2O[C@H](CO)[C@@H](O)[C@H]2O)c2ncnc(N)c12 [Toyocamycin, toyocamycin, reference compound] | 54.8 ± 1.9 µM | 23.5 ± 0.8 µM | 3.66 ± 0.09 µM | 2.07 ± 0.07 µM | mode of inhibition of Rio1 (human Rio1 [9]): mixed inhibition; shift in Tm of human Rio1 bound to toyocamycin (hRio1 [10]): 12.1 °C

Second part, led by results:

IC50 (hCK2α [1]) | Ki (hCK2α [1]) | IC50 (human Rio1 [2]) | Ki (human Rio1 [2]) | SMILES | also measured
0.39 ± 0.012 µM | 0.167 µM | 0.61 ± 0.02 µM |  | CN(C)c1nc2c(Br)c(Br)c(Br)c(Br)c2n1C [1Me-DMAT, 4,5,6,7-tetrabromo-N,N,1-trimethylbenzimidazole-2-amine] | inhibition of CK2 stronger than that of Rio1 (fold) (hCK2α [1]): twofold stronger
 |  | 0.37 ± 0.011 µM | 0.209 ± 0.008 µM | O=C(O)c1ccc2c(c1)nc(Nc1cccc(Cl)c1)c1ccncc12 [CX-4945, Silmitasertib, reference compound] | 
 |  | 0.19 ± 0.009 µM | 0.1 µM | CN(C)c1nc2c(Br)c(Br)c(Br)c(Br)c2[nH]1 [DMAT, 2-dimethylamino-4,5,6,7-tetrabromobenzimidazole, reference compound] | 
0.066 ± 0.003 µM | 0.025 ± 0.001 µM | 0.19 ± 0.011 µM | 0.1 ± 0.004 µM | Cc1nc2c(I)c(I)c(I)c(I)c2[nH]1 [K92, 4,5,6,7-tetraiodo-2-methylbenzimidazole] | inhibition of CK2 stronger than that of Rio1 (fold) (hCK2α [1]): fourfold stronger
0.3 ± 0.009 µM | 0.128 ± 0.005 µM | 0.29 ± 0.009 µM | 0.164 ± 0.007 µM | Brc1c(I)c(Br)c2nc[nH]c2c1I [K95, 4,6-dibromo-5,7-diiodobenzimidazole] | 
 |  | 0.33 ± 0.007 µM | 0.186 ± 0.009 µM | Brc1c(Br)c(Br)c2[nH]cnc2c1Br [TBI, 4,5,6,7-tetrabromobenzimidazole] | 
0.33 ± 0.013 µM | 0.141 ± 0.005 µM | 0.65 ± 0.03 µM | 0.367 ± 0.012 µM | CC(CC(=O)O)Sc1nc2c(Br)c(Br)c(Br)c(Br)c2[nH]1 (stereo not shown) [TBSB, 3-(4,5,6,7-tetrabromobenzimidazole-2-ylsulfanyl)butanoic acid] | inhibition of CK2 stronger than that of Rio1 (fold) (hCK2α [1]): twofold stronger
0.083 ± 0.003 µM | 0.035 ± 0.001 µM | 0.09 ± 0.005 µM | 0.05 ± 0.002 µM | Ic1c(I)c(I)c2[nH]cnc2c1I [TIBI, 4,5,6,7-tetraiodobenzimidazole] | mode of inhibition of Rio1 (human Rio1 [3]): strict ATP-competitive inhibitors; Vmax of Rio1 in the presence of TIBI (human Rio1 [3]; no shift with increasing TIBI concentration): 0.09 pmol/s; effect on oligomeric state (monomer–tetramer equilibrium) of Rio1 (hRio1 [4]): does not influence the oligomeric state; also recorded: did not observe any changes in the monomer–tetramer equilibrium; ΔTm at 100 µM (hCK2α [5]; bound versus unbound, read-out: shift in melting temperature (Tm) of CK2α): 20 °C; melting temperature (Tm) of TIBI-bound CK2α (hCK2α [5]; unbound enzyme 58.8 °C): 78.8 °C; proapoptotic activity [6]: proapoptotic activity; IC50 (human Rio1 [7]; IC50 against Rio1 at 0.01 µM ATP, 0.01 µM ATP): 0.046 µM; IC50 (human Rio1 [7]; IC50 against Rio1 at 0.1 µM ATP, 0.1 µM ATP): 0.061 µM; IC50 (human Rio1 [7]; IC50 against Rio1 at 1 µM ATP, 1 µM ATP): 0.101 µM; ΔTm at 100 µM (hRio1 [8]; bound versus unbound, read-out: shift in melting temperature (Tm) of Rio1): 10 °C; melting temperature (Tm) of bound Rio1 (hRio1 [8]; unbound enzyme 58.8 °C): 68.8 °C
